# What was measured:
# [1] = Preparation of compound stocks in DMSO (dissolution observed); format: physicochemical
# Description: (§1) Compounds. Stocks of compounds 1 through 8 on the list below were prepared in PBS at 100× the concentration indicated in red type. […] This stock was 100× of final concentration. A 20 mg/ml stock of compound 10 (CBD) was prepared in DMSO. […] This stock was 200× of final concentration.
# human fibroblast cells = assay: HA production assessment, SDS-PAGE of fibroblast supernatants; format: cell-based; conditions: Experiment 2, primary adult human dermal fibroblasts, 72 hours, octapeptide 100 ug/mL, SymDecanox 250 ug/mL, others 500 ug/mL, FIG. 6
# Description: In a second experiment, HA production was also assessed with the test compounds below. Briefly, primary adult human dermal fibroblast cells were cultured until near confluent in 6 well plates. The cells were treated with the compounds and concentrations indicated to the right. After 72 hours, 100 μL of media were collected from each treatment condition and was concentrated in a SpeedVac concentrator to a final volume of ~10 uL.
# All 10 μL of the supernatants were loaded onto an acrylamide gel (NuPAGE 4-12% Bis-Tris Protein Gel) and run at 200V for 3 hours. The gel was stained to detect the presence of HA. Data is seen in FIG. 6. […] Lane 11 is the negative control, representing the untreated cells. This band represents the cells constitutive level of HA. Treating the cells with all the indicated compounds (lanes 1-10) produced an increased level of high molecular weight HA. […]
# [2] = tested on: Hyaluronic Acid Synthase 2 (HAS2); assay: Gene expression study (RNA sequencing), HAS2 expression in keratinocytes; format: cell-based; conditions: human keratinocytes, 24 hours of compound exposure, FIG. 2
# Description: (§2) Cell Lines. Human adult dermal fibroblast and keratinocyte cell lines were treated with 11 different compound treatments (plus DMSO control as treatment #12). Primary fibroblasts, keratinocytes sourced from ZenBio. Primary cells were plated in cell specific media at 5K or 10K cells per cm^2 as per ZenBio instructions. Cells were plated in 48 well plates (Greiner) in triplicate, one cell line per plate. Media volume was 500 ul per well. Outer two columns of wells were not used. All rows were used. Cells were cultured for 2 days in 37° C. 5% CO2 incubator. After 48 hours all the cell cultures were uniform and appeared healthy, no appreciable number of floating dead cells or evidence of vacuolization of cells that might indicate apoptotic or dying cells.
# as §1
# (§3) Dosing. After 48 hours of attachment culture, fibroblasts and keratinocytes were treated with the test compounds. […]
# (§4) RNA Lysate preparation. […] All samples were shipped frozen on dry ice to MedGenome for RNA extraction, library construction and sequencing to 25M paired end 100 bp reads per sample. […]
# Hyaluronidase 2 (HYAL2) = assay: Gene expression study (RNA sequencing), HYAL2 expression in keratinocytes; format: cell-based; conditions: human keratinocytes, 24 hours of compound exposure, FIG. 3
# Description: as §2, §1, §3, §4
compound,measurement,setting,value
C=C(C)[C@@H]1CCC(C)=C[C@H]1c1c(O)cc(CCCCC)cc1O [CBD],Dissolution of stock in DMSO,[1]; 20 mg/ml stock in DMSO,slightly cloudy
phosphatidylserine,Level of high molecular weight HA (band on gel),human fibroblast cells,secrete high molecular weight HA
same,Dissolution of stock in DMSO,"[1]; 50 mg/ml stock in DMSO, extensive vortexing and warming",did not fully go into solution
"Hexapeptide-11: hexapeptide test agent; FVAPFP (SEQ ID NO: 19) is printed as a hexapeptide sequence, not tied explicitly",HAS2 expression in keratinocytes,[2],excellent upregulation
same,Hyaluronidase 2 (HYAL2) expression in keratinocytes,Hyaluronidase 2 (HYAL2),potent downregulation
"CCCCCCCC(=O)CCc1ccc(O)c(OC)c1 [SymDecanox™, hydroxymethoxyphenyl decanone]",Level of high molecular weight HA (band on gel),human fibroblast cells,secrete high molecular weight HA
tetradecyl-diaminobutyroylvalyldiaminobutyric urea trifluoroacetate [SynHycan],Level of high molecular weight HA (band on gel),human fibroblast cells,secrete high molecular weight HA
